One data set is filed under the species Mus musculus. As to the kind of experiment: Cytotoxicity against mouse BV2 cells at IC50 by MTT assay. Format: toxicity, cell-based. Particulars: bv-2.
For data set [1], the target named is T1, Nitric oxide synthase, inducible (Mus musculus, UniProt P29477).
T1 sequence (P29477 whole entry): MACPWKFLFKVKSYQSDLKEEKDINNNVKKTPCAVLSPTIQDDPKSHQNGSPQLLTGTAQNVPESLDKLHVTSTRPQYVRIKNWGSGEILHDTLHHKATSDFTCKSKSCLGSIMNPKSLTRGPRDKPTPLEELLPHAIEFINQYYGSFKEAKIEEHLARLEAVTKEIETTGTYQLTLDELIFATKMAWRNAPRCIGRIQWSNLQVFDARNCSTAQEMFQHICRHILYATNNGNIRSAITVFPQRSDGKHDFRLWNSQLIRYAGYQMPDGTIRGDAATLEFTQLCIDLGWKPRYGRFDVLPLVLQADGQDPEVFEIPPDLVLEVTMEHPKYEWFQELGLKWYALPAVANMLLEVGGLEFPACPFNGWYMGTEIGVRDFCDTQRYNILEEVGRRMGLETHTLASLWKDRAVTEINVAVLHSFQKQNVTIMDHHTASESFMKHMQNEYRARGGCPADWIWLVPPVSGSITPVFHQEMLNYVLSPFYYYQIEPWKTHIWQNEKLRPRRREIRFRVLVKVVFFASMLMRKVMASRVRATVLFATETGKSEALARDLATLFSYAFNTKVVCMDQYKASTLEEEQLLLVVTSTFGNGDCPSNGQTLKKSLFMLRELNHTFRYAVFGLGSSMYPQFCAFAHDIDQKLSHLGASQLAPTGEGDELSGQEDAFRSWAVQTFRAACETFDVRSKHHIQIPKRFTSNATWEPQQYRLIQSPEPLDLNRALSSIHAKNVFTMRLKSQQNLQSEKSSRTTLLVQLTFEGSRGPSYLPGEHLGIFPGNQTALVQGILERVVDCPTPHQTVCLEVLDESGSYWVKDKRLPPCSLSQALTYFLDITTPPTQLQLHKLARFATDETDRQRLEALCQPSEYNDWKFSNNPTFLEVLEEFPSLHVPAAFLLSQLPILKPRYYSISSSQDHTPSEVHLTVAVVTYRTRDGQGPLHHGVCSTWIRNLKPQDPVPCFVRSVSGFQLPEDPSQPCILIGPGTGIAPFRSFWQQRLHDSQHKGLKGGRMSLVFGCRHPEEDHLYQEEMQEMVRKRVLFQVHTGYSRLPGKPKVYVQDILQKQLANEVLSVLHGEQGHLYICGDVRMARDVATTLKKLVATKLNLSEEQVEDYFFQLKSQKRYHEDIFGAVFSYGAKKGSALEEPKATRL
As to the kind of experiment: Inhibition of iNOS in mouse BV2 cells assessed as inhibition of LPS-induced NO production after 20 hrs by Griess reaction. It is filed as cell-based, BV-2. In general terms: Nitrite, measured by Griess reagent, commonly stands in for NO production.

Bounds are passed on as bounds.

Broadly, the IC50 is the point on the concentration scale where inhibition reaches its midpoint.

On to `CSC(=N)N.O=S(=O)(O)O`, for which the Activity result in the data set filed under Mus musculus is given as “Non-Toxic”. In addition, the 50% inhibitory concentration (IC50) in data set [1] worked out at 1.8 µM.
The corresponding values for `C=C(C)[C@@]1(OC(C)=O)[C@H](OC(C)=O)[C@@H]2[C@H](OC(C)=O)[C@@]3(C)O[C@@]4([C@@H]3OC(=O)c3ccccc3)[C@@H](OC(C)=O)[C@@H](C)C[C@H]4[C@@]2(O)[C@H](C)[C@@H]1OC(=O)c1ccccc1` are “Non-Toxic” and 7.5 µM.
The matching figures for `Cc1cc2c(cc1O)[C@@]1(C)CC[C@H](O)C(C)(C)[C@@H]1CC2`: “Non-Toxic” and 5.9 µM.
With `C=C(C)[C@@]1(O)[C@@H]2OC3(c4ccccc4)O[C@H]1[C@@H](C)[C@@]1(O3)[C@H]2[C@H](O)[C@@](C)(OC(=O)c2ccccc2)[C@@H](OC(C)=O)[C@@]2(O)[C@H]1C[C@H](C)[C@@H]2O`, in the data set filed under Mus musculus, the Activity entry is listed as “Non-Toxic”. Moreover, the 50% inhibitory concentration (IC50) in data set [1] was > 30 µM.
Take `C=C(C)[C@@]1(OC(=O)c2ccccc2)[C@H](OC(C)=O)[C@@H]2[C@H](OC(C)=O)[C@@]3(C)O[C@@]4([C@@H]3OC(=O)c3ccccc3)[C@@H](OC(C)=O)[C@@H](C)C[C@H]4[C@@]2(O)[C@H](C)[C@@H]1OC(C)=O`: in the data set listed under Mus musculus, the Activity entry is on record as “Non-Toxic”. Moreover, the IC50 in data set [1] amounted to 13.4 µM.
Consider `Cc1cc2c(cc1O)C=C1CC[C@H](O)C(C)(C)[C@@H]1CC2`, for which the Activity result in the data set filed under Mus musculus is “Non-Toxic”. Also, the IC50 in data set [1] was determined as 3.8 µM.
The corresponding values for `C=C(C)[C@@]1(O)[C@@H]2OC3(c4ccccc4)O[C@H]1[C@@H](C)[C@@]1(O3)[C@H]2[C@H](OC(C)=O)[C@@](C)(OC(=O)c2ccccc2)[C@@H](OC(C)=O)[C@@]2(O)[C@H]1C[C@H](C)[C@@H]2O` are “Non-Toxic” and 10.2 µM.

(Values after ChEMBL document CHEMBL3856242, “Bioactive diterpenoids from Trigonostemon chinensis: Structures, NO inhibitory activities, and interactions with iNOS” (Bioorg Med Chem Lett, 2016).)
